Source: PMC10461478, “The chemical profiling of Salvia plebeia during different growth periods and the biosynthesis of its main flavonoids ingredients” (Frontiers in Plant Science, 2023)

What was measured:
SpF6OMT1 = molecular target: T1, SpF6OMT1 (Salvia plebeia, UniProt A0AA49X7D9); test: HPLC-DAD / UPLC-Q-TOF-MS product detection; type: biochemical; conditions: 1 mM SAM, 1 mM MgCl2, 1 mM DTT, 100 mM Tris-HCl, 28 °C, 12 h; product hispidulin
T1 construct: gene F6OMT1; full ORF in pET28a (His tag), E. coli BL21(DE3), Ni-NTA purified

SpF6OMT2 = molecular target: T2, SpF6OMT2 (Salvia plebeia, UniProt A0AA49X7F5); test: HPLC-DAD / UPLC-Q-TOF-MS product detection; type: biochemical; conditions: 1 mM SAM, 1 mM MgCl2, 1 mM DTT, 100 mM Tris-HCl, 28 °C, 12 h; product hispidulin
T2 construct: gene F6OMT2; full ORF in pET28a (His tag), E. coli BL21(DE3), Ni-NTA purified

SpC4H = molecular target: T3, SpC4H (Salvia plebeia, UniProt A0AA50AF12); test: HPLC-DAD / UPLC-Q-TOF-MS product detection; type: biochemical; conditions: 1 mM NADPH, 0.5 mM GSH, AtCPR added, 100 mM Tris-HCl, 28 °C, 12 h; product 4-coumaric acid
T3 construct: gene C4H; ORF in pET32a (Trx/His tag), E. coli BL21(DE3), Ni-NTA purified; AtCPR added; with NADPH--cytochrome P450 reductase (Arabidopsis thaliana)

SpFNS = molecular target: T4, SpFNS (Salvia plebeia, UniProt A0AA49X7D7); test: HPLC-DAD / UPLC-Q-TOF-MS product detection; type: biochemical; conditions: 1 mM NADPH, 0.5 mM GSH, 100 mM Tris-HCl, 28 °C, 12 h; AtCPR co-expressed; product apigenin
T4 construct: gene FNS

SpUGT2 = molecular target: T5, SpUGT2 (Salvia plebeia, UniProt A0AA49XCW5); test: HPLC-DAD / UPLC-Q-TOF-MS product detection; type: biochemical; conditions: 1 mM UDP-glucose, 50 mM PBS, 30 °C, 4 h; product homoplantaginin
T5 construct: gene UGT2; ORF in pSJ8-MBP (MBP fusion), E. coli BL21(DE3), Ni-NTA purified
T5 sequence (A0AA49XCW5 1-478): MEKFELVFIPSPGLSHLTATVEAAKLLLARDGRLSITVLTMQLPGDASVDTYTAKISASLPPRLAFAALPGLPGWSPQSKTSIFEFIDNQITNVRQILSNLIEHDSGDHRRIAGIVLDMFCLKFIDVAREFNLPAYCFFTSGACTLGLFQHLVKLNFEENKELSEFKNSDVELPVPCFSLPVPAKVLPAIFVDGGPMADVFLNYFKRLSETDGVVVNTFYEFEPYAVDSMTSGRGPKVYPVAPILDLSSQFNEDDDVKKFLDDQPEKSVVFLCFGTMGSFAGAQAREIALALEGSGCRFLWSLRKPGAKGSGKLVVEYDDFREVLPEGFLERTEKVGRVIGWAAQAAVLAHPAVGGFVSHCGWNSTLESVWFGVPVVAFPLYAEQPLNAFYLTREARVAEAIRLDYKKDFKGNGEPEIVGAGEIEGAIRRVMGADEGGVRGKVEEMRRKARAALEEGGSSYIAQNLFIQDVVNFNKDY

SpUGT3 = molecular target: T6, SpUGT3 (Salvia plebeia, UniProt A0AA49X848); test: HPLC-DAD / UPLC-Q-TOF-MS product detection; type: biochemical; conditions: 1 mM UDP-glucose, 50 mM PBS, 30 °C, 4 h; product homoplantaginin
T6 construct: gene UGT3; ORF in pSJ8-MBP (MBP fusion), E. coli BL21(DE3), Ni-NTA purified
T6 sequence (A0AA49X848 1-469): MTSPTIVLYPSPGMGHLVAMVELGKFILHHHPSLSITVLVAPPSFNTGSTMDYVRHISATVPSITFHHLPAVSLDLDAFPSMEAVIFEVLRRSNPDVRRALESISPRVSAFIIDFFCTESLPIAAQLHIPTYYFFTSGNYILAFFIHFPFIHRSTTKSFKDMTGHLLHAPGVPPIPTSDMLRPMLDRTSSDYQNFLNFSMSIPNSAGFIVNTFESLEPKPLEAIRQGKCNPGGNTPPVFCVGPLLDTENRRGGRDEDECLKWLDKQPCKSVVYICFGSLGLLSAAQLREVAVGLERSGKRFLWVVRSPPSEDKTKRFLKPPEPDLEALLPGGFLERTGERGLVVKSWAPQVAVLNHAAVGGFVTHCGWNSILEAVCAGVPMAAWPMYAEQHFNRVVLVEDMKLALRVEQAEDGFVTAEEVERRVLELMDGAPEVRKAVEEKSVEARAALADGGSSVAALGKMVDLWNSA

SpUGT1 = molecular target: T7, SpUGT1 (Salvia plebeia, UniProt A0AA49X7M2); test: HPLC-DAD / UPLC-Q-TOF-MS product detection; type: biochemical; conditions: 1 mM UDP-glucose, 50 mM PBS, 30 °C, 4 h; product homoplantaginin
T7 construct: gene UGT1; ORF in pSJ8-MBP (MBP fusion), E. coli BL21(DE3), Ni-NTA purified
T7 sequence (A0AA49X7M2 1-450): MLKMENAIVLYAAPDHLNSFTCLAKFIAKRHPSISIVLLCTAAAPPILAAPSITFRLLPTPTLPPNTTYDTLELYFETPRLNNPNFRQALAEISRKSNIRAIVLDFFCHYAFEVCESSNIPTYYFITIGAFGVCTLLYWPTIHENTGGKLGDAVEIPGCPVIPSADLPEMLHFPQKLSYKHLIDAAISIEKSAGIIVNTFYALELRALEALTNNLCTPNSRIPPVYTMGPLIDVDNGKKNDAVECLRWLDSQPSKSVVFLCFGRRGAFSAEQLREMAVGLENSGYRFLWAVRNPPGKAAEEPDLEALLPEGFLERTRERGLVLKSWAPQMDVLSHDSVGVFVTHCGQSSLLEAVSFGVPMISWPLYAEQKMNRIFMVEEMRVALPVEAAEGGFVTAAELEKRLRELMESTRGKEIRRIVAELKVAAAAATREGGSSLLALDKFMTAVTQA

SpPAL = molecular target: T8, SpPAL (Salvia plebeia, UniProt A0AA50AET4); test: HPLC-DAD / UPLC-Q-TOF-MS product detection; type: biochemical; conditions: 100 mM Tris-HCl, 37 °C, 8 h; product cinnamic acid
T8 construct: gene PAL; full ORF in pET28a (His tag), E. coli BL21(DE3), Ni-NTA purified

SpCHS1 = molecular target: T9, SpCHS1 (Salvia plebeia, UniProt A0AA50A905); test: HPLC-DAD / UPLC-Q-TOF-MS of E. coli culture extract; type: cell-based; conditions: substrate formed in situ by co-expressed RtTAL and Pt4CL from fed tyrosine; product naringenin chalcone
T9 construct: gene CHS1; ORF in pET28a, co-expressed in E. coli with RtTAL and Pt4CL (substrate supply)
T9 sequence (A0AA50A905 1-390): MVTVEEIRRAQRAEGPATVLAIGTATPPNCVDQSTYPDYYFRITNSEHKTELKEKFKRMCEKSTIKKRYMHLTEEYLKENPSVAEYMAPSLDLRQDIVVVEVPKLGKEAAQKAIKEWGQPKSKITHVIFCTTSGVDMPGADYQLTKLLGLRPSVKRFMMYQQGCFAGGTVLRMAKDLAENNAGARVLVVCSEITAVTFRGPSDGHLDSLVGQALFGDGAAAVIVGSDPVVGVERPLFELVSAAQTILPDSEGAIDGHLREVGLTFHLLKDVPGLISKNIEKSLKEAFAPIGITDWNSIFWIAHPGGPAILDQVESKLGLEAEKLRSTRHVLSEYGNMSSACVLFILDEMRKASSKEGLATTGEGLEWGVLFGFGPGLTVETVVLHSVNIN

SpF6H1 = molecular target: T10, SpF6H1 (Salvia plebeia, UniProt A0AA49X7K6); test: HPLC-DAD / UPLC-Q-TOF-MS product detection; type: biochemical; conditions: 1 mM NADPH, 0.5 mM GSH, 100 mM Tris-HCl, 28 °C, 12 h; AtCPR co-expressed; product scutellarein
T10 construct: gene F6H1; ORF in pET32a (Trx/His tag), E. coli; co-expressed with AtCPR; with NADPH--cytochrome P450 reductase (Arabidopsis thaliana)
T10 sequence (A0AA49X7K6 1-521): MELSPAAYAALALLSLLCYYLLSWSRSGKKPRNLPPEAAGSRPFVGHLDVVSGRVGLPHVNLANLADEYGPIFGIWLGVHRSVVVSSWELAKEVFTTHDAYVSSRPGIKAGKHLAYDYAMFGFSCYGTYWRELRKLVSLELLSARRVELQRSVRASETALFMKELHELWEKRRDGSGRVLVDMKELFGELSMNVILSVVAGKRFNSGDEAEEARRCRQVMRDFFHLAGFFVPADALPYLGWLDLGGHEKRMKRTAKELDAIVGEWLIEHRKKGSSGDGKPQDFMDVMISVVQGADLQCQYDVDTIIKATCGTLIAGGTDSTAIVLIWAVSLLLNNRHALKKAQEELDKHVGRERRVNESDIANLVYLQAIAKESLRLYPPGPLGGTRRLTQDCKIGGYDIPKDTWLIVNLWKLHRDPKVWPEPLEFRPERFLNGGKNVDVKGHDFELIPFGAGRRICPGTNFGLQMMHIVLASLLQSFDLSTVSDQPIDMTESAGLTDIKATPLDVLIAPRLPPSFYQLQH

SpCHI = molecular target: T11, SpCHI (Salvia plebeia, UniProt A0AA49X7E2); test: HPLC-DAD / UPLC-Q-TOF-MS product detection; type: biochemical; conditions: 100 mM PBS, 25 °C, 2 s; product naringenin
T11 construct: gene CHI; full ORF in pET28a (His tag), E. coli BL21(DE3), Ni-NTA purified
T11 sequence (A0AA49X7E2 1-225): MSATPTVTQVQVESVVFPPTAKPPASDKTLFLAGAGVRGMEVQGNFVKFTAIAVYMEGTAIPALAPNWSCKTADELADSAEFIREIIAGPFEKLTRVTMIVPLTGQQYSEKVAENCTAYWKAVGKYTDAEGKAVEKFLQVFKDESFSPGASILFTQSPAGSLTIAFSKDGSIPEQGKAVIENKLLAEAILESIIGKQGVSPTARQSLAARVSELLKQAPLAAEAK

T1 sequence (A0AA49X7D9 1-222): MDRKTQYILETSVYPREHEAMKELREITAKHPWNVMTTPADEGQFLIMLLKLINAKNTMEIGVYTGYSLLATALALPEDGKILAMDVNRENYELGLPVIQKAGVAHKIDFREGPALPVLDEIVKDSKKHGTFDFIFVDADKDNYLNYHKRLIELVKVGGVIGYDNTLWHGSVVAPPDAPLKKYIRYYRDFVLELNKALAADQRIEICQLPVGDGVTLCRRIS
T4 sequence (A0AA49X7D7 1-507): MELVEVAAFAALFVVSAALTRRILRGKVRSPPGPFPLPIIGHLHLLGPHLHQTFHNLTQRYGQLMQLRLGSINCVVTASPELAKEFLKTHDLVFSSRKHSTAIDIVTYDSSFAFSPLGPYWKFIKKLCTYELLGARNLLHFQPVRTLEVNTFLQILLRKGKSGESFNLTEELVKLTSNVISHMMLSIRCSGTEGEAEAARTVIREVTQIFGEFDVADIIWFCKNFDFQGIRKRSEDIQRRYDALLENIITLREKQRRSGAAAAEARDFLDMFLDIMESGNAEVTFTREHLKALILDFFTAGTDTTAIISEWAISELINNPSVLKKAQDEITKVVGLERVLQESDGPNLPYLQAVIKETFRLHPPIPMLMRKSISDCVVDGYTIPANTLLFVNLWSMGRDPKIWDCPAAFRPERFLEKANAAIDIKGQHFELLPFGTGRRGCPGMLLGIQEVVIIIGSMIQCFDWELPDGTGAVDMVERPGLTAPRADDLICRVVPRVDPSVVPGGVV
T8 sequence (A0AA50AET4 1-710): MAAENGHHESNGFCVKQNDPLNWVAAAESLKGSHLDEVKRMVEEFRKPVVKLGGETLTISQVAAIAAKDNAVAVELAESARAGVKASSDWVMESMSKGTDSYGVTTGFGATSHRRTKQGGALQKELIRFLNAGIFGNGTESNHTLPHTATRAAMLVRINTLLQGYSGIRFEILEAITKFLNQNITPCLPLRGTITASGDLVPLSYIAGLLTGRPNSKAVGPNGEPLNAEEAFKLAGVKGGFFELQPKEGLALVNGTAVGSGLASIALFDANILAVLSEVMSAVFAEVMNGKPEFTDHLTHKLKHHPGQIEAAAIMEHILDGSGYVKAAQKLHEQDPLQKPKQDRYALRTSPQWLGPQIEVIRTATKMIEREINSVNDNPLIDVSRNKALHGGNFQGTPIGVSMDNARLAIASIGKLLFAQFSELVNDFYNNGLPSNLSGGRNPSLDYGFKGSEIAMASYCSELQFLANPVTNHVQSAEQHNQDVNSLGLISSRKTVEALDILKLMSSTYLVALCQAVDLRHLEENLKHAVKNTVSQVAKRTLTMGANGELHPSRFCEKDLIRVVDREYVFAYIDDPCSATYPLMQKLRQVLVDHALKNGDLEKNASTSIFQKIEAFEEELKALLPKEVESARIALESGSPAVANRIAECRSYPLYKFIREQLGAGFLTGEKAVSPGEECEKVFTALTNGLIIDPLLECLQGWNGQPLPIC
T3 sequence (A0AA50AF12 entry or part of it): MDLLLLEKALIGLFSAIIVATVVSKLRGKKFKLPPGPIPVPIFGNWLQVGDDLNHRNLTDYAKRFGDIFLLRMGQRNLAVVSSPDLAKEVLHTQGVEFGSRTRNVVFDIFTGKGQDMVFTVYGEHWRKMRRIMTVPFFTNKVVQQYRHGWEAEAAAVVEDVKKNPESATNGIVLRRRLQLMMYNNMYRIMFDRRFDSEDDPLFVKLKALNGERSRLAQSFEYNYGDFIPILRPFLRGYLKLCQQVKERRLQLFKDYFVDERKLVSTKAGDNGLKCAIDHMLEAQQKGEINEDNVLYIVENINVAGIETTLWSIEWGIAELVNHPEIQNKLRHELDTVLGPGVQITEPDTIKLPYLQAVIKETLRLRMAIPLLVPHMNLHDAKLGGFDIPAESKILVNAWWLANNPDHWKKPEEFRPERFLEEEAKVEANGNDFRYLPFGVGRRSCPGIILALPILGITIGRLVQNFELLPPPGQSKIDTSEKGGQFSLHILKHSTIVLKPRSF
T2 sequence (A0AA49X7F5 1-247): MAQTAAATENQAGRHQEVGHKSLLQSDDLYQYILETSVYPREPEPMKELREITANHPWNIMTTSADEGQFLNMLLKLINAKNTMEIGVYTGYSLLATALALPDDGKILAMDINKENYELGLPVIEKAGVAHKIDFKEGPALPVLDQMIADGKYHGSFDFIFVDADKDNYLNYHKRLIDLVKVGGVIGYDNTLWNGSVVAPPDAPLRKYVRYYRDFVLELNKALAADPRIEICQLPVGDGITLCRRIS

With `O=c1cc(-c2ccc(O)cc2)oc2cc(O)c(O)c(O)c12` [SA, scutellarein] the “HPLC-DAD / UPLC-Q-TOF-MS product detection” value (SpF6OMT1) was “SpF6OMT1 and SpF6OMT2 converted scutellarein into hispidulin” and the “HPLC-DAD / UPLC-Q-TOF-MS product detection” value (SpF6OMT2) was “SpF6OMT1 and SpF6OMT2 converted scutellarein into hispidulin”.

In the case of `O=C(O)/C=C/c1ccccc1` [CiA, cinnamic acid], the “HPLC-DAD / UPLC-Q-TOF-MS product detection” value (SpC4H) is reported as “SpC4H was able to catalyze the production of 4-coumaric acid from cinnamic acid”.

With `O=C1C[C@@H](c2ccc(O)cc2)Oc2cc(O)cc(O)c21` [NG, naringenin] the “HPLC-DAD / UPLC-Q-TOF-MS product detection” value (SpFNS) was “SpFNS produced apigenin from naringenin”.

For `COc1c(O)cc2oc(-c3ccc(O)cc3)cc(=O)c2c1O` [HD, hispidulin], the “HPLC-DAD / UPLC-Q-TOF-MS product detection” value (SpUGT2) was “SpUGT1, SpUGT2, and SpUGT3 produced homoplantaginin from hispidulin in vitro”, the “HPLC-DAD / UPLC-Q-TOF-MS product detection” value (SpUGT3) was “SpUGT1, SpUGT2, and SpUGT3 produced homoplantaginin from hispidulin in vitro” and the “HPLC-DAD / UPLC-Q-TOF-MS product detection” value (SpUGT1) was “SpUGT1, SpUGT2, and SpUGT3 produced homoplantaginin from hispidulin in vitro”.

`N[C@@H](Cc1ccccc1)C(=O)O` [Phe, phenylalanine] was tested, and the “HPLC-DAD / UPLC-Q-TOF-MS product detection” value (SpPAL) was “SpPAL can catalyze the formation of cinnamic acid from phenylalanine”.

In the case of `CC(C)(COP(=O)(O)OP(=O)(O)OC[C@H]1O[C@@H](n2cnc3c(N)ncnc32)[C@H](O)[C@@H]1OP(=O)(O)O)[C@@H](O)C(=O)NCCC(=O)NCCSC(=O)/C=C/c1ccc(O)cc1` [4-coumaryl-CoA], the “HPLC-DAD / UPLC-Q-TOF-MS of E. coli culture extract” value (SpCHS1) is reported as “providing a sufficient substrate for the catalytic reaction of SpCHS”.

`O=c1cc(-c2ccc(O)cc2)oc2cc(O)cc(O)c12` [AG, apigenin] was tested, and the “HPLC-DAD / UPLC-Q-TOF-MS product detection” value (SpF6H1) was “SpF6H1 produced scutellarein from apigenin, a precursor of hispidulin”.

With `O=C(/C=C/c1ccc(O)cc1)c1c(O)cc(O)cc1O` [NC, naringenin chalcone] the “HPLC-DAD / UPLC-Q-TOF-MS product detection” value (SpCHI) was “naringenin chalcone was completely consumed in the sample group to generate naringenin”.
